Experiments:
Assay in all cases: relative viability (nuclei count vs DMSO), 5 days (fraction); higher = more cells survive
QS11 + Dasatinib = compound: C1CC2=C(C1)C=C(C=C2)OC3=NC(=C4C(=N3)N(C=N4)CC5=CC=C(C=C5)C6=CC=CC=C6)N[C@@H](CC7=CC=CC=C7)CO [QS11] + Cc1nc(Nc2ncc(C(=O)Nc3c(C)cccc3Cl)s2)cc(N2CCN(CCO)CC2)n1 [Dasatinib] (partner 0.075 µM)
How it was run: (§1)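 Nuclei were stained with Hoechst during a one-step fixation (final 0.05% Triton X-100, 1% formaldehyde, 1 ug/ml Hoechst) carried out 5 days after dosing, then counted on 4× images. The cells, lung cancer lines in 1536-well plates, had been dosed by pin tool the day after seeding with one drug alone or a fixed anchor-drug dose plus five library-drug doses (not always all listed) in √10 steps. Relative viability is the nuclei count in treated wells divided by that in vehicle wells, and each value is the median of duplicate plates.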

AZ628 + Palbociclib = compound: CC1=C(C=C(C=C1)NC(=O)C2=CC(=CC=C2)C(C)(C)C#N)NC3=CC4=C(C=C3)N=CN(C4=O)C [AZ628] + CC(=O)c1c(C)c2cnc(Nc3ccc(N4CCNCC4)cn3)nc2n(C2CCCC2)c1=O [Palbociclib] (partner 0.5 µM)
How it was run: as §1

AZ628 + Navitoclax = compound: CC1=C(C=C(C=C1)NC(=O)C2=CC(=CC=C2)C(C)(C)C#N)NC3=CC4=C(C=C3)N=CN(C4=O)C [AZ628] + CC1(C)CCC(c2ccc(Cl)cc2)=C(CN2CCN(c3ccc(C(=O)NS(=O)(=O)c4ccc(N[C@H](CCN5CCOCC5)CSc5ccccc5)c(S(=O)(=O)C(F)(F)F)c4)cc3)CC2)C1 [Navitoclax] (partner 0.5 µM)
How it was run: as §1

Darinaparsin + AZD7762 = compound: C[As](C)SC[C@H](NC(=O)CC[C@H](N)C(=O)O)C(=O)NCC(=O)O [Darinaparsin] + NC(=O)Nc1cc(-c2cccc(F)c2)sc1C(=O)N[C@H]1CCCNC1 [AZD7762] (partner 0.2 µM)
How it was run: as §1

| Cell Line | relative viability (QS11 + Dasatinib; first compound 0.08 µM) | relative viability (QS11 + Dasatinib; first compound 0.253 µM) | relative viability (QS11 + Dasatinib; first compound 0.8 µM) | relative viability (QS11 + Dasatinib; first compound 2.53 µM) | relative viability (QS11 + Dasatinib; first compound 8 µM) | relative viability (AZ628 + Palbociclib; first compound 0.08 µM) | relative viability (AZ628 + Palbociclib; first compound 0.253 µM) | relative viability (AZ628 + Palbociclib; first compound 0.8 µM) | relative viability (AZ628 + Palbociclib; first compound 2.53 µM) | relative viability (AZ628 + Palbociclib; first compound 8 µM) | relative viability (AZ628 + Navitoclax; first compound 0.08 µM) | relative viability (AZ628 + Navitoclax; first compound 0.253 µM) | relative viability (AZ628 + Navitoclax; first compound 0.8 µM) | relative viability (AZ628 + Navitoclax; first compound 2.53 µM) | relative viability (AZ628 + Navitoclax; first compound 8 µM) | relative viability (Darinaparsin + AZD7762; first compound 0.08 µM) | relative viability (Darinaparsin + AZD7762; first compound 0.8 µM) | relative viability (Darinaparsin + AZD7762; first compound 2.53 µM) | relative viability (Darinaparsin + AZD7762; first compound 8 µM) |
| --- | --- | --- | --- | --- | --- | --- | --- | --- | --- | --- | --- | --- | --- | --- | --- | --- | --- | --- | --- |
| NCI-H2009 | 0.277 | 0.295 | 0.261 | 0.209 | 0.229 | 0.201 | 0.177 | 0.141 | 0.125 | 0.174 | 1.11 | 0.94 | 0.98 | 1.04 | 0.455 | – | – | – | – |
| SK-LU-1 | 0.175 | 0.158 | 0.172 | 0.167 | 0.169 | 0.284 | 0.286 | 0.349 | 0.314 | 0.288 | 0.502 | 0.878 | 1.06 | 0.886 | 0.902 | – | – | – | – |
| RERF-LC-KJ | 0.921 | 0.836 | 0.764 | 0.61 | 0.534 | 1.07 | 1.09 | 0.994 | 1.13 | 0.843 | 1.04 | 0.816 | 0.755 | 0.861 | 0.745 | 0.92 | 0.989 | 0.865 | 1.19 |
| NCI-H322M | 0.264 | 0.261 | 0.27 | 0.292 | 0.318 | 0.513 | 0.519 | 0.466 | 0.505 | 0.449 | 1.34 | 1.14 | 1.19 | 1.24 | 0.914 | 0.585 | 0.42 | 0.488 | 0.518 |
| LK-2 | 0.287 | 0.321 | 0.317 | 0.268 | 0.306 | 0.911 | 0.849 | 0.412 | 0.736 | 0.366 | 1.07 | 0.887 | 0.847 | 0.818 | 0.634 | 0.482 | – | 0.335 | 0.581 |
| SK-MES-1 | 0.374 | 0.307 | 0.425 | 0.326 | 0.297 | 0.361 | 0.343 | 0.246 | 0.324 | 0.328 | 1.22 | 1.25 | 1.39 | 1.23 | 1.21 | – | – | – | – |
| NCI-H1299 | – | – | – | – | – | – | – | – | – | – | 1.1 | 1.15 | 1.17 | 1.19 | 0.975 | – | – | – | – |
| NCI-H2228 | 0.415 | 0.521 | 0.55 | 0.725 | 0.677 | 0.763 | 0.605 | 0.843 | 0.737 | 0.619 | 0.829 | 1.13 | 1.03 | 1.01 | 0.839 | – | – | – | – |
| NCI-H1792 | 0.697 | 0.754 | 0.672 | 0.745 | 0.942 | 0.66 | 0.632 | 0.52 | 0.558 | 0.388 | 0.682 | 0.619 | 0.545 | 0.591 | 0.44 | 0.697 | 0.624 | – | 0.797 |
| LOU-NH91 | 0.56 | 0.51 | 0.524 | 0.628 | 0.602 | 0.535 | 0.526 | 0.547 | 0.557 | 0.539 | 0.681 | 0.713 | 0.713 | 0.654 | 0.4 | 0.808 | 0.745 | 0.719 | 0.775 |
| IA-LM | – | – | – | – | – | – | – | – | – | – | 1.15 | 0.716 | 0.641 | 0.761 | 0.0904 | – | – | – | – |
| SW 900 | 0.629 | 0.529 | 0.428 | 0.417 | 0.521 | 0.595 | 0.542 | 0.537 | 0.555 | 0.497 | – | – | – | – | – | 0.644 | – | 0.549 | 0.6 |
| LU99A | 0.463 | 0.587 | 0.685 | 0.684 | 0.681 | 0.366 | 0.368 | 0.381 | 0.442 | 0.369 | 0.856 | 0.859 | 0.865 | 0.895 | 0.296 | 0.455 | 0.273 | 0.328 | 0.383 |
| NCI-H661 | 0.794 | 0.804 | 0.891 | 0.798 | 0.711 | 0.418 | 0.378 | 0.368 | 0.366 | 0.386 | – | – | – | – | – | – | – | – | – |
| EBC-1 | – | – | – | – | – | – | – | – | – | – | 0.349 | 0.427 | 0.325 | 0.326 | 0.224 | – | – | – | – |
| NCI-H3122 | 0.876 | 0.82 | – | 0.969 | 0.538 | 0.159 | 0.144 | 0.142 | 0.144 | 0.137 | 0.929 | 0.762 | 0.73 | 0.555 | 0.42 | 1.14 | 1 | 0.937 | 1.34 |
| LC-2-ad | 0.535 | 0.537 | 0.614 | 0.693 | 0.79 | 0.473 | 0.51 | 0.424 | 0.468 | 0.373 | 0.406 | 0.348 | 0.589 | 0.54 | 0.347 | 1.07 | 0.859 | 0.679 | 1.02 |
| HCC-78 | 0.432 | 0.395 | 0.491 | 0.558 | 0.67 | 0.478 | 0.454 | 0.516 | 0.53 | 0.449 | 0.902 | 0.782 | 0.85 | 0.746 | 0.92 | 0.587 | 0.706 | 0.58 | 0.699 |

Reference: the supplement of paper PMC10307832
